Three molecules from patent US20240299400A1, “Transcription Factor GLI1 Inhibitors and Uses Thereof” (University of Connecticut, priority 2023, published 2024) can be followed below.

SMILES strings stand for the structures.

One assay concerns DAOY (MB). The experiment in a line: MTS anti-proliferative assay in DAOY cells. It counts as cell-based. To be noted: Homo sapiens, Daoy; Table 8, 48 h, mean ± SEM. The procedure: (§1) Cell viability was assessed by MTS proliferation assay kit (Promega) per manufacturer's protocol. Briefly, 2×10^4 cells were plated in a 96-well plate in 100 μL growth medium to make the cell population at ˜80% confluence. After 24 h, 1 μL drug solution was added to each well. DMSO was used as vehicle compound. After 48 h incubation (37° C., 5% CO2), 20 μL of freshly prepared 3-(4,5-dimethylthiazol-2-yl)-5-(3-carboxymethoxyphenyl)-2-(4-sulfophenyl)-2H-tetrazolium (MTS)/phenazine methosulfate (PMS) solution was added to each well, and the plate was returned to the incubator for 1 h. Absorbance at 490 nm was recorded, and the result was analyzed by GraphPad Prism 5. GI50 values represent mean±SEM for at least two separate experiments performed in triplicate.
(Tetrazolium assays rely on reduction of a dye to a coloured formazan, in cell work by metabolically active cells.)

The next assay relates to PANC-1 (pancreatic). The experiment in a line: MTS anti-proliferative assay in PANC-1 cells. It is filed as cell-based. To be noted: Homo sapiens, PANC-1; Table 8, 48 h, mean ± SEM. The method, then:
as §1

A further assay has as its target T1, IGF1R (Homo sapiens, UniProt P08069).
T1 construct: purchased ThermoFisher Scientific (Madison, WI, USA), contract service
The experiment in a line: ZLyte kinase assay, IGF1R. It is filed as biochemical. To be noted: average of three replicates. The method, then:
(§2) Kinase screening experiments. Kinase inhibition/binding experiments were performed by ThermoFisher Scientific (Madison, WI, USA) as a contract service, utilizing their default protocols [G. Yernale, A comprehensive review on the biological interest of quinoline and its derivatives. Bioorg. Med. Chem. 32 (2021) 115973]. Briefly, for ZLyte assay, compound in DMSO (100 nL), kinase buffer (2.4 μL), peptide/kinase mixture (5 μL), and ATP solution (2.5 μL) were mixed in a black 384-well plate. Following a 30 s plate shake to mix reagents, the kinase assay mixture was incubated at RT for 60 min. Following addition of the development reagent solution to each well, another 60 min incubation was performed at RT for reaction development. Fluorescent signal was recorded and subsequently analyzed.

Another assay deals with T2, DYRK1B (Homo sapiens, UniProt Q9Y463).
T2 construct: purchased ThermoFisher Scientific (Madison, WI, USA), contract service
T2 sequence (Q9Y463 whole entry): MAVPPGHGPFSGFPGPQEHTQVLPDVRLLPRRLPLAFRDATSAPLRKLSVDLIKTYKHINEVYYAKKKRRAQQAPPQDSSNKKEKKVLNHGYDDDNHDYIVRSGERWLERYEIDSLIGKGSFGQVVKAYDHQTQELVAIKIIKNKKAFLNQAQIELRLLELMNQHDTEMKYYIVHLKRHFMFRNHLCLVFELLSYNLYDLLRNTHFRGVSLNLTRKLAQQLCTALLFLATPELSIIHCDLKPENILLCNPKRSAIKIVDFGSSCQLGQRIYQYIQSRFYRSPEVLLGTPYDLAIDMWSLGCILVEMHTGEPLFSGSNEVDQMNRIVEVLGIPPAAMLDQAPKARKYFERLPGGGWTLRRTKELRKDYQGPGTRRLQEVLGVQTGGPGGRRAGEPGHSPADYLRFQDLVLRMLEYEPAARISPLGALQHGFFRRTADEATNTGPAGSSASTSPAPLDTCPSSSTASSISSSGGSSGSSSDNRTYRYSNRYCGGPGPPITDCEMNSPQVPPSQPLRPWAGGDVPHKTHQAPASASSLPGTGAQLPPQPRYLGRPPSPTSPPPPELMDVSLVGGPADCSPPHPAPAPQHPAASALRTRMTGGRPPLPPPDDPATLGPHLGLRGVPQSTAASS
Kind of assay: ZLyte kinase assay, DYRK1B. It is filed as biochemical. To be noted: average of three replicates. The method, then:
as §2

The next assay has as its target T3, MAP2K2 (Homo sapiens, UniProt P36507).
T3 construct: purchased ThermoFisher Scientific (Madison, WI, USA), contract service
Kind of assay: ZLyte kinase assay, MAP2K2. It counts as biochemical. Conditions: average of three replicates. The procedure: as §2

For the next assay, the target named is T4, CSNK1A1 (Homo sapiens, UniProt P48729).
T4 construct: purchased ThermoFisher Scientific (Madison, WI, USA), contract service
The experiment in a line: ZLyte kinase assay, CSNK1A1. It counts as biochemical. To be noted: average of three replicates. The method, then: as §2

In assay [1] the test system is GLI1 mRNA expression. The experiment in a line: RT-qPCR GLI1 mRNA expression in ASZ001 BCC cells. It is filed as cell-based, mouse. To be noted: Mus musculus, Ave ± SEM, read-out: RT-qPCR, IC50 ASZ001. (Quantitative PCR measures a nucleic acid by following its amplification.)
In the next assay the target is T5, RET (Homo sapiens, UniProt P07949).
T5 construct: purchased ThermoFisher Scientific (Madison, WI, USA), contract service
T5 sequence (P07949 29-1114): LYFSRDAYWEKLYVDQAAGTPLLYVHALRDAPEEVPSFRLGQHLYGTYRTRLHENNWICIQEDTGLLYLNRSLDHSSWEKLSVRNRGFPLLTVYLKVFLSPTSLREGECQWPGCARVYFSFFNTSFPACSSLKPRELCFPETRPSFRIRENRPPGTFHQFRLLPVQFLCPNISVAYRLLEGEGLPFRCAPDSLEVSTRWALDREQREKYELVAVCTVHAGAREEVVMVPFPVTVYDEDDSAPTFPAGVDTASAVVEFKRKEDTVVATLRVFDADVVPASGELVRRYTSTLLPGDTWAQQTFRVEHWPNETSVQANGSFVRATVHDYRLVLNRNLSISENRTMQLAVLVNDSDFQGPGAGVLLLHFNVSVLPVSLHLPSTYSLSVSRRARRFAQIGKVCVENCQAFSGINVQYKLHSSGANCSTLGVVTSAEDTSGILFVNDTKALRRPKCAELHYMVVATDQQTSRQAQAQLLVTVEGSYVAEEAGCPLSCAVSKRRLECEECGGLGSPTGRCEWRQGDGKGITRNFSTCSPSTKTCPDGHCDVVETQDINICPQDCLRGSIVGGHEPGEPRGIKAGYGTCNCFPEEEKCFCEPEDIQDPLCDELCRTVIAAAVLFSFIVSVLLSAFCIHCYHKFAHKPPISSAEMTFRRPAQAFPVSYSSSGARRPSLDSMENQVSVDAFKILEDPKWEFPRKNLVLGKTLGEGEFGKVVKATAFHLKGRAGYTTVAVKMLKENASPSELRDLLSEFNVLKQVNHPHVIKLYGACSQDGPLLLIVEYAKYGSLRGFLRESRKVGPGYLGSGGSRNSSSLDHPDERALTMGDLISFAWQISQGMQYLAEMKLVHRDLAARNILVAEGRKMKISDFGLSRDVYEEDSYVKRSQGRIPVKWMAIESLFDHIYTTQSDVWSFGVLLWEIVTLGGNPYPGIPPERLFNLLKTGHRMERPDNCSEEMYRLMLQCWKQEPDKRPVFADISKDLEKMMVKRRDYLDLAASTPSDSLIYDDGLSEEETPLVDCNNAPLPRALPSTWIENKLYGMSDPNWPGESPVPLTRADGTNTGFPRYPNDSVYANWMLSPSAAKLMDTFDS
Kind of assay: ZLyte kinase assay, RET. It counts as biochemical. To be noted: average of three replicates. The procedure:
as §2

The target in the next assay is T6, SRC kinase (Homo sapiens, UniProt P12931).
T6 construct: purchased ThermoFisher Scientific (Madison, WI, USA), contract service
T6 sequence (P12931 whole entry): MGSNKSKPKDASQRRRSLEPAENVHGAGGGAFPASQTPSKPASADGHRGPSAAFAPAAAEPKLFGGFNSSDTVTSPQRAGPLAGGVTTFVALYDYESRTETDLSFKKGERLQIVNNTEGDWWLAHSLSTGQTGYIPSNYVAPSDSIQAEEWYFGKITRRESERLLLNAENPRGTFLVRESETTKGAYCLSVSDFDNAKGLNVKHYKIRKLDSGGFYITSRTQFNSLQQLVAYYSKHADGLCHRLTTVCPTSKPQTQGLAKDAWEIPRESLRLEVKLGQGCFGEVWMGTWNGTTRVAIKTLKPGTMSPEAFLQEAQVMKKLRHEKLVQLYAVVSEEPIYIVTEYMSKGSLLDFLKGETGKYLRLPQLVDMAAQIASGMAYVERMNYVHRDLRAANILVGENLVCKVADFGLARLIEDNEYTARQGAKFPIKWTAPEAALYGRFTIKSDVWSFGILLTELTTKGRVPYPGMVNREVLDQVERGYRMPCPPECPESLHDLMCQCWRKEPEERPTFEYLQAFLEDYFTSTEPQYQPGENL
Kind of assay: ZLyte kinase assay, SRC. Conditions: for inhibition at 1 µM: ZLyte, average of three replicates; for concentration-dependent inhibition of SRC kinase (in words): FIG. 6, representative experiment in triplicate. It is filed as biochemical. The method, then:
as §2

A further assay deals with T7, PIK3C2A (Homo sapiens, UniProt O00443).
T7 construct: purchased ThermoFisher Scientific (Madison, WI, USA), contract service
Kind of assay: Adapta kinase assay, PIK3C2A. It counts as biochemical. To be noted: average of three replicates. The procedure:
as §2
For the Adapta assay, compounds in DMSO (100 nL), 30 mM HEPES buffer (2.4 μL), substrate/kinase mixture (5 μL), and ATP solution (2.5 μL) were mixed in a white 384-well plate. Following a 30 s plate shake to mix the reagents and a 1 min centrifuge at 1000 g, the kinase assay mixture was incubated at RT for 60 min. Following addition of the detection mix (5 μL) to each well, 30 s plate shaking, and 1 min centrifuge at 1000 g, another 60 min incubation was performed at RT for equilibration. Fluorescent signals were recorded and subsequently analyzed.

Assay [2] concerns GLI1 mRNA expression. The experiment in a line: RT-qPCR GLI1 mRNA expression in Sufu-KO MEFs. Conditions: for IC50: Mus musculus, Ave ± SEM, read-out: RT-qPCR, IC50 Sufu-KO. It is filed as cell-based, mouse.
The next assay has as its target T8, EGFR (Homo sapiens, UniProt P00533).
T8 construct: purchased ThermoFisher Scientific (Madison, WI, USA), contract service
Kind of assay: ZLyte kinase assay, EGFR. It is filed as biochemical. Conditions: average of three replicates. The method, then: as §2

A further assay deals with T9, CSNK2A1 (Homo sapiens, UniProt P68400).
T9 construct: purchased ThermoFisher Scientific (Madison, WI, USA), contract service
T9 sequence (P68400 whole entry): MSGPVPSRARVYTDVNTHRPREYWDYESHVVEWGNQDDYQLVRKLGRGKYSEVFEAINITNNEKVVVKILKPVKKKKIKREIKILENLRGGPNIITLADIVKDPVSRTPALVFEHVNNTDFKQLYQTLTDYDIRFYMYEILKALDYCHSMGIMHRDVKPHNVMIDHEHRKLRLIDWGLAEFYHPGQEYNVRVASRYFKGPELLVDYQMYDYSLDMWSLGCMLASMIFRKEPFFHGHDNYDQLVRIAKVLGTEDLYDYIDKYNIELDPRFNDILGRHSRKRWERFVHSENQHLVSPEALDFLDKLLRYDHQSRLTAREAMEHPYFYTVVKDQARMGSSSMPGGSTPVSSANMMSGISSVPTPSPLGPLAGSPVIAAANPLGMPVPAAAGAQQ
Kind of assay: ZLyte kinase assay, CSNK2A1. It counts as biochemical. To be noted: average of three replicates. The method, then: as §2

Another assay deals with T10, GSK3B (Homo sapiens, UniProt P49841).
T10 construct: purchased ThermoFisher Scientific (Madison, WI, USA), contract service
T10 sequence (P49841 whole entry): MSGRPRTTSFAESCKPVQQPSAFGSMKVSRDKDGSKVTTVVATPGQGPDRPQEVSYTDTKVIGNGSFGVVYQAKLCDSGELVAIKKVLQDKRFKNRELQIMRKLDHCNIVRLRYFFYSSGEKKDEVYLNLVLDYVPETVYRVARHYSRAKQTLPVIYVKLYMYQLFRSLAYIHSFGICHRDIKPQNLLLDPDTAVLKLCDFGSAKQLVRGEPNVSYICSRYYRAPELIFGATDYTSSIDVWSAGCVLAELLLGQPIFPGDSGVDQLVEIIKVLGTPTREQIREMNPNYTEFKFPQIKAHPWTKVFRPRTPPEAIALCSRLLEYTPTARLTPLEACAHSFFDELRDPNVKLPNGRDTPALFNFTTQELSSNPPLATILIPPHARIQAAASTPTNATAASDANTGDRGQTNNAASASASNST
Kind of assay: ZLyte kinase assay, GSK3B. It is filed as biochemical. Conditions: average of three replicates. The procedure:
as §2

T3 sequence (P36507 whole entry): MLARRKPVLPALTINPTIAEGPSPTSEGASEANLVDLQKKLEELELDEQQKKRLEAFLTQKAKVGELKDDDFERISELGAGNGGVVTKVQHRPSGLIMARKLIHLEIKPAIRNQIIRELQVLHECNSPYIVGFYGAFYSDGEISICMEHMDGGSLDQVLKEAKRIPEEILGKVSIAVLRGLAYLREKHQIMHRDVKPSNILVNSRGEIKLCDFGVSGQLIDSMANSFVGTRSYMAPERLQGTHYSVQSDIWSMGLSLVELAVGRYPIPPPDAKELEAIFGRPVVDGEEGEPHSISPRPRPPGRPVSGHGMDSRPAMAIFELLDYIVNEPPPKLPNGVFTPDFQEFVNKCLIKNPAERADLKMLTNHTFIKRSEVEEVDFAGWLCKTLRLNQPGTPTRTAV
T1 sequence (P08069 31-1367): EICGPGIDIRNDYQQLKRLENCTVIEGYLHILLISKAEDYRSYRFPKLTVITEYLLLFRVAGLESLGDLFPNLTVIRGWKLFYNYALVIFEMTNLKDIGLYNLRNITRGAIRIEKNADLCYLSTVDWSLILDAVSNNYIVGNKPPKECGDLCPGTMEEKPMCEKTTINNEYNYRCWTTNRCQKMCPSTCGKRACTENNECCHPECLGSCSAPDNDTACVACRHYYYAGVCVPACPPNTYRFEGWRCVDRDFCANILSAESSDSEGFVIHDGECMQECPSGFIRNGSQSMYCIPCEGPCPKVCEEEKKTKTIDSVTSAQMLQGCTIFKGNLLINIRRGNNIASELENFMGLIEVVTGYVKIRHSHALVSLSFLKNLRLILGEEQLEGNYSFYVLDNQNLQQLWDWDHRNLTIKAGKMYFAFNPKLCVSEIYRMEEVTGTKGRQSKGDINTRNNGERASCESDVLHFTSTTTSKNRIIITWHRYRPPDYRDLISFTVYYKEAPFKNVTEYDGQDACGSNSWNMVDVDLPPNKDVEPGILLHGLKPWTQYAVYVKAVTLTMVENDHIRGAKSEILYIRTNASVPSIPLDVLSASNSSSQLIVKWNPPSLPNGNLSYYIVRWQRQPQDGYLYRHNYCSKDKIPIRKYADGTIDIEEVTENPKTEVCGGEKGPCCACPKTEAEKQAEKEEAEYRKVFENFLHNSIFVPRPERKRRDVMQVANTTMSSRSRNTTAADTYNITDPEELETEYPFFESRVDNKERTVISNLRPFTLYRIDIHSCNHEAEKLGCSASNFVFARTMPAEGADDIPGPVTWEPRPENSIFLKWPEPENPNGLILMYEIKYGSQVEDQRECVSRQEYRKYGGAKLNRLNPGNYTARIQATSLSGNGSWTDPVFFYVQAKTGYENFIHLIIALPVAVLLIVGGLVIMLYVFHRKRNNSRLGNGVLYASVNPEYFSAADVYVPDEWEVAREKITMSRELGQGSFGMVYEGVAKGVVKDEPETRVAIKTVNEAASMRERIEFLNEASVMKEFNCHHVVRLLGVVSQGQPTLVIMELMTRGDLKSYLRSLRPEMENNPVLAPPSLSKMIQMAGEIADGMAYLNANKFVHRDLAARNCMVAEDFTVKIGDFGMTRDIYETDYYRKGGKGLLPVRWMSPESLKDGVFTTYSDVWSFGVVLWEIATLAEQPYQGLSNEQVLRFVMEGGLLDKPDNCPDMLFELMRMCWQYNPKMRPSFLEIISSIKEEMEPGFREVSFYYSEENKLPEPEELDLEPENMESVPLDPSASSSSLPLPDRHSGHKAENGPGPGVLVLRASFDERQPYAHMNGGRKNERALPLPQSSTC

In the case of `CCN(CC)c1ccc(C(Nc2ccccn2)c2ccc3ccc(C)nc3c2OC)cc1` (stereo not shown) [Compound 20, N-((4-Diethylaminophenyl)(8-methoxy-2-methylquinolin-7-yl)methyl)pyridin-2-amine], the GI50 in the assay with DAOY (MB) and in the assay with PANC-1 (pancreatic) was > 100 µM each time. Moreover, the inhibition (as a rule, the drop in the measured response relative to a control, in per cent) at 1 µM against IGF1R was determined as 9%; against DYRK1B, 3%; against MAP2K2, 12%; against CSNK1A1 it was 4%; on RET, 6%; at SRC kinase it was 45%. For the same molecule, the inhibition at 1 µM is 3% against PIK3C2A, -2% against EGFR, 5% on CSNK2A1 and -1% at GSK3B. In addition, the IC50 (usually the concentration at which inhibition is half-maximal) is 1300 ± 300 nM in the assay on GLI1 mRNA expression [1] (ASZ001, Table 5, GLI1 mRNA) and > 25000 nM in the assay on GLI1 mRNA expression [2] (Table 5, GLI1 mRNA). Further, at SRC kinase, the “concentration-dependent inhibition of SRC kinase (in words)” value (“concentration-dependent inhibition” below) is given as “inhibit SRC kinase in a concentration-dependent fashion”. In addition, the “anti-GLI1 activity in Sufu-KO cells (in words)” value in the assay on GLI1 mRNA expression [2] was “inactive”.
As for `Cc1ccc2ccc(C(Nc3ccccn3)c3ccncc3)c(O)c2n1` (stereo not shown) [Compound 39, 7-((Pyridin-4-yl)(pyridin-2-ylamino)methyl)-2-methylquinolin-8-ol], the figures for the GI50 with DAOY (MB) and in the assay on PANC-1 (pancreatic) were 1.2 ± 0.2 µM and 0.83 ± 0.1 µM, respectively. Also, the inhibition at 1 µM at IGF1R was 12%; at DYRK1B, 3%; on MAP2K2, 14%; at CSNK1A1 it was 3%; at RET, 8%; against SRC kinase it was 46%. Besides, the inhibition at 1 µM at PIK3C2A was -1%; on EGFR it was 2%; against CSNK2A1 it was 2%; at GSK3B it was 1%. Also, the IC50 is 1900 ± 500 nM in the assay on GLI1 mRNA expression [1] (ASZ001, Table 7, GLI1 mRNA) and 2900 ± 1900 nM in the assay with GLI1 mRNA expression [2] (Table 7, GLI1 mRNA). Further, the “concentration-dependent inhibition” value at SRC kinase is listed as “inhibit SRC kinase in a concentration-dependent fashion”.
`Cc1ccc2ccc(C(Nc3ccccn3)c3ccc(N4CCCC4=O)cc3)c(O)c2n1` (stereo not shown) [Compound 48, 7-((4-(2-Oxopyrrolidin-1-yl)phenyl)(pyridin-2-ylamino)methyl)-2-methylquinolin-8-ol]: the figures for the GI50 with DAOY (MB) and with PANC-1 (pancreatic) were 25 ± 2.3 µM and 23.2 ± 4.3 µM, respectively. Further, the inhibition at 1 µM at IGF1R worked out at 9%; against DYRK1B it was 5%; on MAP2K2 it was 16%; against CSNK1A1 it was 6%; against RET, 5%; against SRC kinase, 39%. For the same molecule, the inhibition at 1 µM worked out at 0% against PIK3C2A, 2% at EGFR, 2% on CSNK2A1 and 4% against GSK3B. Further, the IC50 was found to be 610 ± 340 nM in the assay with GLI1 mRNA expression [1] (ASZ001, Table 7, GLI1 mRNA) and 820 ± 270 nM in the assay on GLI1 mRNA expression [2] (Table 7, GLI1 mRNA). Further, on SRC kinase, the “concentration-dependent inhibition” value was “inhibit SRC kinase in a concentration-dependent fashion”.
